Paper PMC9743128, “Phenotype-based screening rediscovered benzopyran-embedded microtubule inhibitors as anti-neuroinflammatory agents by modulating the tubulin–p65 interaction” (Experimental & Molecular Medicine, 2022)

How the values were obtained:
[1] = tested on: LPS-mediated NO release in BV-2 microglial cells; experiment: Griess assay: cellular NO release after LPS treatment; type: cell-based, murine
Procedure: Cellular secretion of nitric oxide (NO) was quantified with the Griess assay. BV-2 cells were seeded on a clear flat bottom TC-treated 96-well plate (Corning; #3598) and sealed with breathable sealing tape (Axygen; BF-400-S). After 18 h, BV-2 cells were treated with compounds in the absence or presence of 100 ng/mL LPS (Sigma; L4391). After 24 h, 50 μL of the cell culture media was mixed with the same volume of Griess reagent {0.1% naphthylethylenediamine dihydrochloride (Sigma; #222488) and 1% sulfanilamide (Sigma; S9251) in 4% phosphoric acid (Daejung; #6532-4405)}. Absorbance at 550 nm was measured using a microplate reader (BioTek; Synergy). Sodium nitrite (Alfa Aesar; A18668) was used for standard curve generation.
Microglia are tissue-resident macrophages involved in CNS immunosurveillance[3],[39]. Microglial activation induces proinflammatory cytokine tumor necrosis factor α (TNF-α) expression, resulting in neural toxicity[5],[6]. Therefore, the inhibition of microglial activation is critical for regulating neuroinflammation. To discover anti-neuroinflammatory NCEs, we monitored the cellular release of nitric oxide (NO) in response to lipopolysaccharide (LPS) treatment as a mimic of pathogenic activation of innate immune systems upon compound treatment in BV-2 cells using the Griess assay.

[2] = Pharmacokinetic (PK) study after IP injection; conditions: C57BL/6, mouse, in vivo, I.P., 5 mg/kg
[3] = tested on: TNF-α secretion in BV-2 cells; experiment: TNF-α ELISA of culture medium after LPS; type: cell-based, murine; conditions: 10 μM
Procedure: BV-2 and RAW264.7 cells were treated with compounds in the absence or presence of LPS (100 ng/ml). After 24 h, TNF-α levels in the culture medium were measured using a TNF-α ELISA kit (R&D Systems; DY410) according to the manufacturer’s protocol. Briefly, capture antibodies were coated on 96-well Maxisorp Nunc-Immuno plates (Thermo; #439454) for 1 h and washed with PBS containing 0.05% Tween-20 (PBST) three times. The plates were blocked with 1% BSA-PBS for 1 h and washed with PBST three times. Culture medium was added to the 96-well plate for 1 h and washed with PBST three times. Biotinylated detection antibody was added to the 96-well plate for 1 h and washed with PBST three times. Streptavidin–horseradish peroxidase (HRP) was added to the plate for 20 min and washed with PBST three times. After 20 min of incubation with TMB substrate (Thermo; #002023), TMB oxidation was stopped by adding 2 N H2SO4. The absorbance at 450 nm, 540 nm, and 570 nm was measured using a microplate reader (BioTek; Synergy). The following formula was used to calculate the net signal: OD450nm–(OD540nm + OD570nm)/2.
Fig. 2 SB26019 has anti-inflammatory activity via the accumulation of tubulin monomers. SB26019 (10 μM for 6 h) regulated the mRNA levels (a) and protein levels (b) of downstream genes of NF-κB in BV-2 murine microglial cells more efficiently than the other known tubulin modulators (n = 3). c Both tubulin modulators (10 μM for 6 h) and transient Flag-tagged α-tubulin overexpression increased the total amount of tubulin monomers. d Quantification of the amount of tubulin polymer vs. monomer in (c). Tubulin modulators (10 μM for 6 h) and transient Flag-tagged α-tubulin overexpression proportionally regulated the NF-κB signaling pathway at the mRNA (e) and protein levels f in RAW264.7 murine macrophage cells (n = 3). Data are presented as the mean ± SD (ns, not significant, p > 0.05; *p < 0.05; **p < 0.01; ***p < 0.001).

[4] = molecular target: T1, tubulin (Sus scrofa, UniProt P02550+P02554); experiment: Tubulin polymerization assay; type: biochemical; conditions: 1 μM compound
T1 construct: purchased Cytoskeleton BK006P
T1 sequence (P02554 whole entry): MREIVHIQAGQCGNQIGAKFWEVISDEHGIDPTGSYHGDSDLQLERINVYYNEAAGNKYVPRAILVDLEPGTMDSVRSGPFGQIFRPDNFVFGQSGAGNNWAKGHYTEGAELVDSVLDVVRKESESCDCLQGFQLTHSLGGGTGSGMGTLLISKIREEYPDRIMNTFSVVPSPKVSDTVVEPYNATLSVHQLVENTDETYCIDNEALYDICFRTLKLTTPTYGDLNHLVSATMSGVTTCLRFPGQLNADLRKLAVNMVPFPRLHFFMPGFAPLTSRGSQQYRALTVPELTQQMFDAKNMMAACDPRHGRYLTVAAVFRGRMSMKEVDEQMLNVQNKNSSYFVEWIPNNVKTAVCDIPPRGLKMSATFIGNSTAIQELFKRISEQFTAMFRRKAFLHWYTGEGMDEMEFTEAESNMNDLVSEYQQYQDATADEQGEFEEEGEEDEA
T1 sequence (P02550 whole entry): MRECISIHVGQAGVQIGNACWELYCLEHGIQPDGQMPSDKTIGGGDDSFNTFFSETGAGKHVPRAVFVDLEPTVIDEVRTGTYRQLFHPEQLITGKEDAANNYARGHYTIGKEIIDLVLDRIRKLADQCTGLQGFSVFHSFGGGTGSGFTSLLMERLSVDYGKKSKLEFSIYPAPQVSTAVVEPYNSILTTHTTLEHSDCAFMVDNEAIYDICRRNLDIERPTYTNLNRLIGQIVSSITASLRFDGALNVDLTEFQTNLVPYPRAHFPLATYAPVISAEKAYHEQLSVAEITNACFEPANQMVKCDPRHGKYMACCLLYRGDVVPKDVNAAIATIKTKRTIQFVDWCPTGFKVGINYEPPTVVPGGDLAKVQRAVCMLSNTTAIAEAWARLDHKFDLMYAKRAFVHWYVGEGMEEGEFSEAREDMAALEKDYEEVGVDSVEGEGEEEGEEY
Procedure: The tubulin polymerization inhibition efficacy of the compounds was measured by a tubulin polymerization assay kit (Cytoskeleton; BK006P) according to the manufacturer’s manual. Absorbance at 340 nm was measured to observe the formation of tubulin polymers using a microplate reader (Biotek; Synergy).
Supplementary Fig. 4. Tubulin polymerization inhibition by compounds 1–13 (1 μM). In the presence or absence of compounds, tubulin was incubated to polymerize at room temperature. Absorbance at 340 nm was measured in a time-dependent manner for monitoring the rate of tubulin polymerization.
Supplementary Table 2. Tubulin polymerization inhibition of the focused library. Tubulin was incubated with each compound (1 μM) and the tubulin polymerization inhibition was monitored. Vmax was calculated from tubulin polymer generation curve data of Supplementary Fig. 3.

[5] = tested on: NF-κB signaling pathway in BV-2 microglial cells; experiment: qPCR of NF-κB downstream genes after LPS; type: cell-based, murine; conditions: BV-2 cells, dose-dependent
Procedure: After cell lysis with RLT buffer (Qiagen), RNA was extracted using the RNAeasy PLUS Mini Kit (Qiagen; #74136). The resulting cDNA was generated using the AccuPower CycleScript RT PreMix (dT20) kit (Bioneer; K2044) on a C1000 Touch Thermal Cycler (Bio-Rad; #1841000). qPCR was performed using a KAPA SYBR® FAST qPCR Master Mix (2×) Universal Kit (Kapa; KK4605) on a StepOne Real-Time PCR system (Applied Biosystems; #4376357). The cycling threshold value of the endogenous control gene GAPDH was subtracted from the cycling threshold value of each target gene to calculate the shift in cycling threshold (ΔCT). […] The primer sequence information for this analysis is shown in Supplementary Table 3.
NF-κB is a central mediator that induces proinflammatory cytokines, including TNF-α, IL-1β, IL-6, and chemokines. […] The expression level of the proinflammatory cytokine TNF-α was also monitored with SB26019 treatment.
Fig. 2 SB26019 has anti-inflammatory activity via the accumulation of tubulin monomers. […]

[6] = tested on: α-tubulin monomers in RAW264.7 cells; experiment: Tubulin monomer/polymer isolation and western blot; type: cell-based, murine; conditions: 10 μM for 6 h
Procedure: To separate soluble tubulin monomers from insoluble tubulin polymers, cells were washed very gently with PBS and incubated for 10 min at room temperature with a microtubule-stabilizing buffer {10% Tris–HCl (pH 6.8) (Acros; #77-86-1), 10% glycerol (Biosesang; GR1018-500-00), 1 mM EGTA (Sigma; E3889), 1 mM MgSO4 (Sigma; M2773), 0.1 mM EDTA (Acros; #409971000), and 1× protease inhibitor cocktail} containing additional 0.1% Triton X-100 (Sigma; T8787). The remaining insoluble tubulin polymers on the culture dish were scraped with microtubule-stabilizing buffer containing an additional 0.5% SDS (Sigma; L3771).

For `COc1ccc2c(c1O)OC(C)(C)C=C2c1cccc2c1oc1ccccc12` [Compound 8], the inhibition at 10 µM ([1]; Mus musculus, 10 μM, BV-2 cells, LPS, read-out: % NO inh. at 10 μM) was 102%, the IC50 ([1]; Mus musculus, BV-2 cells, 100 ng/mL LPS, 24 h) was 1130 nM and the “Anti-neuroinflammatory activity in compensated Griess assay with Taxol” value ([1]; SB26019 5 μM, with or without tubulin stabilizer Taxol) was “attenuated in the presence of Taxol in a dose-dependent manner”. For the same compound, the AUC(0-inf) [2] was 1790 ± 310 ng·h/mL, the AUC(0-t) [2] was 1770 ± 300 ng·h/mL and the Cmax [2] was 1200 ± 260 ng/mL. The Tmax [2] was 0.17 h, the half-life [2] was 3.57 ± 0.62 h and the “TNF-α levels compared to that of the DMSO control” value [3] was less than 50%. For the same compound, the “Vmax of microtubule polymerization compared to DMSO control” value [4] was “significantly inhibited tubulin polymerization”, the “mRNA of inflammatory marker genes (Ccl2, Cxcl10, Il-1β, Il-6, Nos2, Tnf)” value [5] was “suppressed the production of inflammatory marker genes” and the “Total α-tubulin monomers” value [6] was “increased the total α-tubulin monomers”.
